# Assays:
# [1] = molecular target: T1, PKA-type II in lipid rafts of human peripheral blood T cells (Homo sapiens, UniProt P13861); assay: PKA type II content of lipid rafts from human T cells; type: cell-based; conditions: n=4
# T1 construct: endogenous in cells; host or cells: human peripheral blood CD3+ T cells
# Experimental: Lipid Raft Purification. Isolation of lipid rafts or glycolipid-enriched membrane microdomains was performed as described in detail elsewhere (Zhang, W. et al., 1998, Immunity 9:239-246). In brief, cells were homogenized in 1 ml ice-cold lysis buffer (50 mM Hepes, pH 7.4, 100 mM NaCl, 5 mM EDTA, […], 10 mM sodium pyrophosphate, 1 mM Na3VO4, 50 mM NaF, 1 mM PMSF, and protease inhibitors) by 10 pestle strokes in a Dounce homogenizer, loaded at the bottom of a 40-5% sucrose gradient and centrifuged at 200,000 g for 5 or 20 h. 80 μl or 0.4-ml fractions were collected from the top. The fractions were analysed by immunoblot analysis. LAT was used as a marker for lipid raft fractions.
# Lipid rafts were purified from isolated human peripheral blood T cells treated with MEME3-Arg11 or SM3-Arg11 for 12 hours, followed by 10% PAGE and blotting onto a PVDF membrane and immunoblotting (FIG. 18, left panel). The PKA content was measured by densitometry of immunoblots (n=4). PKA type I in cells treated with 10 μM or 25 μM M3-Arg11 was reduced by 80% and 90%, respectively. The very weak signal observed after immunoblotting using antibodies against RIIα (data not shown) was measured by densitometry of the autoradiogram. The PKA-type II level was not reduced in lipid rafts from human peripheral blood T cells treated with MEME3-Arg11 (FIG. 18, right panel, n=4).
# [2] = molecular target: T2, membrane localized RI in Jurkat T cells (Homo sapiens, UniProt P10644); assay: Immunofluorescence of RI localisation in Jurkat T cells; type: cell-based
# T2 construct: endogenous in cells; host or cells: Jurkat T cells
# [3] = molecular target: PKA-RIIα (Homo sapiens, UniProt P13861); assay: Displacement of PKA-RII from the particulate fraction in T cells; type: cell-based; design: endogenous in cells; host or cells: human peripheral blood CD3+ T cells; conditions: increasing concentrations, relative to PKCα
# Experimental: Displacement of PKA-RII from the particulate Fraction in T-cells. Negatively selected CD3^+ T-cells (20×10^6/3 ml/well) were cultured in 6-well plates with 0-50 μM Arg11-SuperAKAPIS (or 0-50 μM M3-Arg11) for 12 hours. Cells were lysed in 250 μl lysis buffer (50 mM Tris pH 7.4, 100 mM NaCl, 5 mM EDTA, 50 mM NaF, 10 mM Na-pyrofosfat, 1 mM Na3VO4, 1 mM PMSF, 0.7% triton X-100) and centrifuged at 14 000×g for 10 min. The sedimented proteins were resuspended in loading dye before being resolved by SDS/PAGE and detected by immunoblotting.
# To assess the effect of MEME3-Arg11 on anchoring of PKA type II, T cells were treated with MEME3-Arg11 or Arg11-super-AKAP-is (as a positive control) and particulate fractions were isolated, followed by 10% PAGE and blotting onto a PVDF membrane (fraction no. 2-4, FIG. 17 in upper panel) and analysed by immunoblotting using antibodies against PKA-RIIα (FIG. 17, upper panel). The levels of PKA-RIIα in the particulate fractions were measured by densitometry of the autoradiograms (lower panel). The level of PKA-RIIα was set relative to that of the internal standard PKCα.
# [4] = molecular target: T3, RIIα (Mus musculus, UniProt P12367); assay: Fluorescence polarization, dissociation constant for RII; type: binding; conditions: qualitative
# T3 construct: His tag; made in house; host or cells: E. coli BL21 (B121 [sic])
# Experimental: Fluorescence Polarization. FITC-labeled peptides (SynPep, San Diego) that were used for fluorescence polarization studies included MEME3 (LEQYANQLADQIIKEATEK(5-Carboxyfluorescein)-CONH2) and MEME3 scrambled peptide (IEKELAQQYQNADAITLEK(5-Carboxyfluorescein)-CONH2). Peptides (0.5 nM for RI experiments and 1 nM for RII experiments) were suspended to working dilutions in phosphate-buffered saline containing 5 μg/μl BSA, pH 7.0. Increasing concentrations of recombinant bovine RI wt or recombinant murine RII were added to a PBS solution and mixed with each FITC-labeled peptide. Each sample was incubated for 2.5 hours. Fluorescence polarization was measured on a Beacon 2000 (Panvera, Madison, Wis.), following the manufacturer's instructions. Saturation binding curves were generated with PRISM graphing software (GraphPad, San Diego). Dissociation constants (Kd) were calculated from the nonlinear regression curve from averages of minimum three individual experiments.
# Protein expression and purification. Human RI, Bovine RI and N-terminal deletions thereof or murine RII was expressed in E. coli B121 by IPTG induction. The RI containing pellet was incubated in lysis buffer (10 mM MOPS, pH 6.5, 100 mM NaCl, 10 μM DTT added protease inhibitors) and sonicated (Branson Sonifier 250) for 1 minute in three intervals at 0° C. […]
# PKA-RIIα, sequence (P13861 whole entry): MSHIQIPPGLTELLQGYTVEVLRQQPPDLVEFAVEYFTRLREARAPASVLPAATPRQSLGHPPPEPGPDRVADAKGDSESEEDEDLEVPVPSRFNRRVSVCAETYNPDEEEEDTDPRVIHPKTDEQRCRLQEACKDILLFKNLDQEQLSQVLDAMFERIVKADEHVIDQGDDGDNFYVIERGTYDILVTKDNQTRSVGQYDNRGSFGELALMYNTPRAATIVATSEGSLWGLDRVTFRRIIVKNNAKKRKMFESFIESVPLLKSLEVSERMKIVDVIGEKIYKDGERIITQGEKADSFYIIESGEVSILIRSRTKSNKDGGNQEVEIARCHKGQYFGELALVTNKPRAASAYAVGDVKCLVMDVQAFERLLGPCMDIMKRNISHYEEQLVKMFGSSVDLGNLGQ
# T1 sequence (P13861 whole entry): as above
# T3 sequence (P12367 whole entry): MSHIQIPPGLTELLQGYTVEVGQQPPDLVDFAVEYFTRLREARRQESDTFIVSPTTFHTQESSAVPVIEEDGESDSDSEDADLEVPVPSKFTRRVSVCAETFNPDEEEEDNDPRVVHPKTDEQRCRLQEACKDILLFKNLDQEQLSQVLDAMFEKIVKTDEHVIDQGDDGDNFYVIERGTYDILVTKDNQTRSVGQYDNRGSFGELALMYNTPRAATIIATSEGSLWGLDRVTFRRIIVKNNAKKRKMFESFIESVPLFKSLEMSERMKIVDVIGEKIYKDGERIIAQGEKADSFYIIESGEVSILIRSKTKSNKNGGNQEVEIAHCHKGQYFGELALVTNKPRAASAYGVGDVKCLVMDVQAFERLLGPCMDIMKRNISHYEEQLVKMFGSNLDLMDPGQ
interaction with RII subunit [4],Substance,PKA-type II level in lipid rafts [1],displacement of membrane localized RI ([2]; 1 μM),displacement of membrane localized RI ([2]; 5 μM),PKA-RIIα in particulate fraction [3]
,LEQYANQLADQIIKEATERRRRRRRRRrr [MEME3-Arg11],not reduced,some displacement of RI from cell membrane,All membrane localized RI was displaced and was delocalised,No reduction in PKA-RIIα
did not interact with either R subunit,"IEKELAQQYQNADAITLE [SM3, scrambled MEME3 negative control peptide, reference compound]",,,,

# From patent US20080248008A1, “Inhibitors of Protein Kinase a Anchoring” (priority 2004, published 2008)
